Earlier results, collected in patent US6676959B1, “Nicotine-containing pharmaceutical compositions giving a rapid transmucosal absorption” (priority 1998, dated 2004).

Details: after starting smoking

In the case of `CN1CCCC1c1cccnc1` (stereo not shown) [nicotine], the “Time to peak blood levels of nicotine” value is listed as 5 to 10 min.
